Reference: patent US9434711B2 (Janssen Pharmaceutica, NV, priority 2007, dated 2016)

Biological target: canine TRPM8 (Canis lupus familiaris, UniProt Q1A7N1)
Experiment: In Vitro Canine TRPM8 Functional Assay (Ca2+ fluorescence, icilin activation)
Assay type: cell-based
Details: for IC50: HEK293 cells stably expressing canine TRPM8, icilin activation, eight-point dose-response, read-out: IC50; for inhibition at 0.2 µM / % Inh @ 0.2 (μM): compound at 0.2 μM, canine TRPM8, icilin activation; for inhibition at 0.2 µM: read-out: % Inh @ 0.2
In short: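 Eight-point dose-response curves, each point averaging quadruplicate wells, gave EC50 or IC50. Canine TRPM8-expressing HEK293 cells, dye-loaded (Calcium 3), were pre-exposed 5 min to compound, then challenged with icilin at roughly EC80; intracellular Ca2+ read by FLIPR or FDSS fluorescence.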

canine TRPM8, sequence (Q1A7N1 1-1104): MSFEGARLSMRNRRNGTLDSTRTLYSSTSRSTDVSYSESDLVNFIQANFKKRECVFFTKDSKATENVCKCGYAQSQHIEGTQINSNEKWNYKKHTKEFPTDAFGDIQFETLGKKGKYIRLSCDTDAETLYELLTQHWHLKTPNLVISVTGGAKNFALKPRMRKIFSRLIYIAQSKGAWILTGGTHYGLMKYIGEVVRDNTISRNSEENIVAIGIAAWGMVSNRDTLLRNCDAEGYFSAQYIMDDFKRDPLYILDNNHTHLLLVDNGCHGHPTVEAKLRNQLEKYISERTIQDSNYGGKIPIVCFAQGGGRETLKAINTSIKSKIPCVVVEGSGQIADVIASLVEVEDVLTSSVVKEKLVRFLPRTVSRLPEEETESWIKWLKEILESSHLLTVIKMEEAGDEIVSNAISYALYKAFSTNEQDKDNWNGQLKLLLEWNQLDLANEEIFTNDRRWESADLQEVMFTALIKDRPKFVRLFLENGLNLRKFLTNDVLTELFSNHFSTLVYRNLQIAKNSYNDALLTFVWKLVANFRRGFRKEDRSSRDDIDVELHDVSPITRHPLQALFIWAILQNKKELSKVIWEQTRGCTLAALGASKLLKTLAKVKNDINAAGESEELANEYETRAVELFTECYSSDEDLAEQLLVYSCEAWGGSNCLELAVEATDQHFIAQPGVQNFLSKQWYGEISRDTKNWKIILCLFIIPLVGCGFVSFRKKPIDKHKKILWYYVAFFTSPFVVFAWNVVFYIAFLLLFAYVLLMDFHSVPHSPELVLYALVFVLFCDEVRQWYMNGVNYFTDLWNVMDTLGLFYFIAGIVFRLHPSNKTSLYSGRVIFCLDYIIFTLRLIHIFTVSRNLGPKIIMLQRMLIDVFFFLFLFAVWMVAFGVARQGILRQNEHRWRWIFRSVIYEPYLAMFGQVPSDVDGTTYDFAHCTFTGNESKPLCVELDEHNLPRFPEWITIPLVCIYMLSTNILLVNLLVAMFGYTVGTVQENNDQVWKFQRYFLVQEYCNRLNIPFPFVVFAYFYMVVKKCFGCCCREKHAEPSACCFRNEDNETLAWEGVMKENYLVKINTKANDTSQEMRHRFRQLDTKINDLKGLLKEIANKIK

In the case of CC(C)(O)c1c(N(Cc2ccc(F)c(C(F)(F)F)c2)S(=O)(=O)c2ccccc2)sc2ccccc12 [Compound 316, N-(4-Fluoro-3-trifluoromethyl-benzyl)-N-[3-(1-hydroxy-1-methyl-ethyl)-benzo[b]thiophen-2-yl]-benzenesulfonamide], the IC50 is reported as 10 nM and the inhibition at 0.2 µM is reported as 101%.
CN(C)S(=O)(=O)N(Cc1ccc(F)c(C(F)(F)F)c1)c1sc2ccccc2c1Br [Compound 317, N-(3-Bromo-benzo[b]thiophen-2-yl)-N-(4-fluoro-3-trifluoromethyl-benzyl)-N′,N′-dimethlysulfamide] was tested, and the IC50 was 17 nM and the “% Inh @ 0.2 (μM)” value was 102%.
Work on CC(=O)c1c(N(Cc2ccc(F)c(C(F)(F)F)c2)S(=O)(=O)c2ccc(C(=O)O)cc2)sc2ccccc12 [Compound 318, N-(3-Acetyl-benzo[b]thiophen-2-yl)-N-(4-fluoro-3-trifluoromethyl-benzyl)-4-carboxy-benzenesulfonamide] yielded an IC50 of 15 nM and an inhibition at 0.2 µM of 101%.
In the case of O=S(=O)(c1cccnc1Cl)N(Cc1ccc(F)c(C(F)(F)F)c1)c1sc2ccccc2c1Br [Compound 319, N-(3-Bromo-benzo[b]thiophen-2-yl)-N-(4-fluoro-3-trifluoromethyl-benzyl)-2-chloro-pyridin-3-ylsulfonamide], the IC50 is reported as 24 nM and the inhibition at 0.2 µM is reported as 100%.
O=S(=O)(c1ccc(Cl)nc1)N(Cc1ccc(F)c(C(F)(F)F)c1)c1sc2ccccc2c1Br [Compound 320, N-(3-Bromo-benzo[b]thiophen-2-yl)-N-(4-fluoro-3-trifluoromethyl-benzyl)-2-chloro-pyridin-5-ylsulfonamide] gave an IC50 of 10 nM and an inhibition at 0.2 µM of 100%.
Compound O=S(=O)(c1cccnc1Cl)N(Cc1ccc(F)c(C(F)(F)F)c1)c1sc2ccccc2c1Cl [Compound 321, N-(3-Chloro-benzo[b]thiophen-2-yl)-N-(4-fluoro-3-trifluoromethyl-benzyl)-2-chloro-pyridin-3-ylsulfonamide] has an IC50 of 70 nM and an inhibition at 0.2 µM of 81%.
O=S(=O)(c1cccnc1)N(Cc1ccc(C(F)(F)F)c(F)c1)c1sc2ccccc2c1Br [Compound 322, N-(3-Bromo-benzo[b]thiophen-2-yl)-N-(3-fluoro-4-trifluoromethyl-benzyl)-pyridin-3-ylsulfonamide] was tested, and the IC50 was 10 nM and the inhibition at 0.2 µM was 99%.
O=S(=O)(c1cccnc1)N(Cc1ccc(OC(F)(F)F)cc1)c1sc2ccccc2c1Br [Compound 323, N-(3-Bromo-benzo[b]thiophen-2-yl)-N-(4-trifluoromethoxy-benzyl)-pyridin-3-ylsulfonamide] gave an IC50 of 10 nM and an inhibition at 0.2 µM of 102%.
Compound O=S(=O)(c1cccnc1)N(Cc1cc(Cl)ccc1F)c1sc2ccccc2c1Br [Compound 324, N-(3-Bromo-benzo[b]thiophen-2-yl)-N-(2-fluoro-5-chloro-benzyl)-pyridin-3-ylsulfonamide] has an IC50 of 15 nM and an inhibition at 0.2 µM of 100%.
O=S(=O)(c1ccccc1)N(Cc1ccc(OC(F)(F)F)cc1)c1sc2ccccc2c1C(F)(F)F [Compound 325, N-(3-Trifluoromethyl-benzo[b]thiophen-2-yl)-N-(4-trifluoromethoxy-benzyl)-benzenesulfonamide] was tested, and the IC50 was 5 nM and the inhibition at 0.2 µM was 102%.
In the case of Cc1c(N(Cc2ccc(F)c(C(F)(F)F)c2)S(=O)(=O)c2ccc(-c3cc(C(F)(F)F)nn3C)s2)sc2ccccc12 [Compound 326, N-(3-Methyl-benzo[b]thiophen-2-yl)-N-(4-fluoro-3-trifluoromethyl-benzyl)-5-(2-methyl-5-trifluoromethyl-2H-pyrazol-3-yl)-thien-2-ylsulfonamide], the inhibition at 0.2 µM is reported as 14%.
COC(=O)c1ccc(S(=O)(=O)N(Cc2ccc(F)c(C(F)(F)F)c2)c2sc3ccccc3c2C)o1 [Compound 327, N-(3-Methyl-benzo[b]thiophen-2-yl)-N-(4-fluoro-3-trifluoromethyl-benzyl)-5-carbomethoxy-furan-2-yl-sulfonamide] showed an IC50 of 37 nM and an inhibition at 0.2 µM of 97%.
Cc1c(N(Cc2ccc(F)c(C(F)(F)F)c2)S(=O)(=O)c2cn(C)nc2C(F)(F)F)sc2ccccc12 [Compound 328, N-(3-Methyl-benzo[b]thiophen-2-yl)-N-(4-fluoro-3-trifluoromethyl-benzyl)-1-methyl-3-trifluoromethyl-1H-pyrazol-4-ylsulfonamide] gave an IC50 of 35 nM and an inhibition at 0.2 µM of 94%.
Cc1c(N(Cc2ccc(F)c(C(F)(F)F)c2)S(=O)(=O)c2ccc(-c3cc(C(F)(F)F)on3)s2)sc2ccccc12 [Compound 329, N-(3-Methyl-benzo[b]thiophen-2-yl)-N-(4-fluoro-3-trifluoromethyl-benzyl)-5-(5-trifluoromethyl-isoxazol-3-yl)-thien-2-ylsulfonamide] gave an inhibition at 0.2 µM of 17%.
With Cc1c(N(Cc2ccc(F)c(C(F)(F)F)c2)S(=O)(=O)c2cnc(Cl)c(Br)c2)sc2ccccc12 [Compound 330, N-(3-Methyl-benzo[b]thiophen-2-yl)-N-(4-fluoro-3-trifluoromethyl-benzyl)-5-bromo-6-chloro-pyridin-3-ylsulfonamide] the IC50 was 88 nM and the inhibition at 0.2 µM was 80%.
With Cc1c(N(Cc2ccc(F)c(C(F)(F)F)c2)S(=O)(=O)c2cnc(Cl)c(Cl)c2)sc2ccccc12 [Compound 331, N-(3-Methyl-benzo[b]thiophen-2-yl)-N-(4-fluoro-3-trifluoromethyl-benzyl)-5,6-dichloro-pyridin-3-ylsulfonamide] the IC50 was 90 nM and the inhibition at 0.2 µM was 71%.
Cc1nnc(-c2cccc(S(=O)(=O)N(Cc3ccc(F)c(C(F)(F)F)c3)c3sc4ccccc4c3C)c2)o1 [Compound 333, N-(3-Methyl-benzo[b]thiophen-2-yl)-N-(4-fluoro-3-trifluoromethyl-benzyl)-3-(5-methyl-[1,3,4]oxadiazol-2-yl)-benzenesulfonamide] was tested, and the IC50 was 9 nM and the inhibition at 0.2 µM was 101%.
Cc1c(N(Cc2ccc(F)c(C(F)(F)F)c2)S(=O)(=O)c2ccc(-c3cnco3)cc2)sc2ccccc12 [Compound 334] gave an IC50 of 6 nM and an inhibition at 0.2 µM of 98%.
Work on CC(O)c1c(N(Cc2ccc(F)c(C(F)(F)F)c2)S(=O)(=O)c2ccc(C(=O)O)cc2)sc2ccccc12 (centres unmarked) [Compound 335, N-(4-Fluoro-3-trifluoromethyl-benzyl)-N-[3-(1-hydroxy-ethyl)-benzo[b]thiophen-2-yl]-4-carboxybenzenesulfonamide] yielded an IC50 of 1 nM and an inhibition at 0.2 µM of 101%.
In the case of CC(=O)Nc1ccc(S(=O)(=O)N(Cc2ccc(F)c(C(F)(F)F)c2)c2sc3ccccc3c2C)cc1Cl [Compound 336, N-(3-Methyl-benzo[b]thiophen-2-yl)-N-(4-fluoro-3-trifluoromethyl-benzyl)-(3-chloro-4-acetamide)-benzenesulfonamide], the IC50 is reported as 15 nM and the “% Inh @ 0.2 (μM)” value is reported as 101%.
For Cc1c(N(Cc2ccc(F)c(C(F)(F)F)c2)S(=O)(=O)c2c(Cl)nc3sccn23)sc2ccccc12 [Compound 337], the IC50 was 19 nM and the “% Inh @ 0.2 (μM)” value was 101%.
O=S(=O)(c1cnccc1Cl)N(Cc1ccc(F)c(C(F)(F)F)c1)c1sc2ccccc2c1Cl [Compound 338, N-(3-Chloro-benzo[b]thiophen-2-yl)-N-(4-fluoro-3-trifluoromethyl-benzyl)-4-chloro-pyridin-3-ylsulfonamide] was tested, and the IC50 was 29 nM.
For O=S(=O)(c1ccc(Cl)nc1)N(Cc1ccc(F)c(C(F)(F)F)c1)c1sc2ccccc2c1Cl [Compound 338], the inhibition at 0.2 µM was 95%.
With CCCCN(c1sc2ccccc2c1C(C)=O)S(=O)(=O)c1ccc(C(=O)OC)cc1 [Compound 339, N-(3-Acetyl-benzo[b]thiophen-2-yl)-N-(butyl)-4-carbomethoxy-benzenesulfonamide] the IC50 was 26.2 nM and the inhibition at 0.2 µM was 94%.
Compound CCCCN(c1cc2ccccc2s1)S(=O)(=O)c1cccnc1 [Compound 340, N-(Benzo[b]thiophen-2-yl)-N-(butyl)-pyridin-3-yl-sulfonamide] has an inhibition at 0.2 µM of 52%.
For CCCCN(c1sc2ccccc2c1C(C)(C)O)S(=O)(=O)c1ccc(C(C)(C)O)cc1 [Compound 341, N-(Butyl)-N-(3-(1-hydroxy-1-methyl-ethyl)-benzo[b]thiophen-2-yl)-4-(2-1-hydroxy-1-methyl-ethyl)-benzenesulfonamide], the IC50 was 14 nM and the “% Inh @ 0.2 (μM)” value was 96%.
In the case of CCCCN(c1sc2ccccc2c1C(C)=O)S(=O)(=O)c1ccc(C(=O)O)cc1 [Compound 342, N-(3-Acetyl-benzo[b]thiophen-2-yl)-N-(butyl)-4-carboxy-benzenesulfonamide], the IC50 is reported as 13 nM and the inhibition at 0.2 µM is reported as 100%.
With CCCCN(c1sc2ccccc2c1C(C)(C)O)S(=O)(=O)c1ccc(C(=O)O)cc1 [Compound 343, N-(Butyl)-N-(3-(1-hydroxy-1-methyl-ethyl)-benzo[b]thiophen-2-yl)-4-carboxy-benzenesulfonamide] the IC50 was 19 nM and the inhibition at 0.2 µM was 98%.
Compound CCCCN(c1sc2ccccc2c1C(C)(C)O)S(=O)(=O)c1ccc(C(C)=O)cc1 [Compound 344, N-(Butyl)-N-(3-(1-hydroxy-1-methyl-ethyl)-benzo[b]thiophen-2-yl)-4-acetyl-benzenesulfonamide] has an IC50 of 12.7 nM and an inhibition at 0.2 µM of 99%.
For CCCCN(c1sc2ccccc2c1Br)S(=O)(=O)c1cccnc1 [Compound 345, N-(3-Bromobenzo[b]thiophen-2-yl)-N-(butyl)-pyridin-3-yl-sulfonamide], the IC50 was 26.5 nM and the inhibition at 0.2 µM was 99%.
CCS(=O)(=O)N(Cc1ccc(F)c(C(F)(F)F)c1)c1sc2ccccc2c1CN(C)C [Compound 346, N-(3-Dimethylaminomethyl-benzo[b]thiophen-2-yl)-N-(4-fluoro-3-trifluoromethyl-benzyl)-ethanesulfonamide] showed an IC50 of 43.8 nM and an inhibition at 0.2 µM of 95%.
CCS(=O)(=O)N(Cc1ccc(F)c(C(F)(F)F)c1)c1sc2ccccc2c1CNC [Compound 347, N-(4-Fluoro-3-trifluoromethyl-benzyl)-N-(3-methylaminomethyl-benzo[b]thiophen-2-yl)-ethanesulfonamide] showed an IC50 of 57.1 nM and an inhibition at 0.2 µM of 95%.
